Assay results published in ChEMBL document CHEMBL1140107, “Design, synthesis, and evaluation of potent and selective ligands for the dopamine 3 (D3) receptor with a novel in vivo behavioral profile” (J Med Chem, 2008).

Experiments:
[1] = molecular target: D(2) dopamine receptor (Rattus norvegicus, UniProt P61169); assay: Displacement of [3H]Spiperone from D2 receptor in Sprague-Dawley rat caudate-putamen; assay type: tissue-based
[2] = molecular target: D(1A) dopamine receptor (Rattus norvegicus, UniProt P18901); assay: Displacement of [3H]SCH23390 from D1-like receptor in Sprague-Dawley rat striatum
[3] = Aqueous solubility of the compound; details: aqueous medium (not further specified)

Chain of D(1A) dopamine receptor (P18901 whole entry): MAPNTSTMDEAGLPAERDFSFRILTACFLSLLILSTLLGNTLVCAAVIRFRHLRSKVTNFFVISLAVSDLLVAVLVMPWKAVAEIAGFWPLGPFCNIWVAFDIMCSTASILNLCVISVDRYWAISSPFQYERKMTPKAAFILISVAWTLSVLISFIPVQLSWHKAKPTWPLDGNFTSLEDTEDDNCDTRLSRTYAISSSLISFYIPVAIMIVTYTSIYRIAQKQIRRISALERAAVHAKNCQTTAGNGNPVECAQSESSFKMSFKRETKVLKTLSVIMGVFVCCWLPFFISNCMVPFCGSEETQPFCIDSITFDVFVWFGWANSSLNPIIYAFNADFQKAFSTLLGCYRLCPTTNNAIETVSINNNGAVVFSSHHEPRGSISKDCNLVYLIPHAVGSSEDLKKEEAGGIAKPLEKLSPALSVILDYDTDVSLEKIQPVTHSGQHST
Chain of D(2) dopamine receptor (P61169 whole entry): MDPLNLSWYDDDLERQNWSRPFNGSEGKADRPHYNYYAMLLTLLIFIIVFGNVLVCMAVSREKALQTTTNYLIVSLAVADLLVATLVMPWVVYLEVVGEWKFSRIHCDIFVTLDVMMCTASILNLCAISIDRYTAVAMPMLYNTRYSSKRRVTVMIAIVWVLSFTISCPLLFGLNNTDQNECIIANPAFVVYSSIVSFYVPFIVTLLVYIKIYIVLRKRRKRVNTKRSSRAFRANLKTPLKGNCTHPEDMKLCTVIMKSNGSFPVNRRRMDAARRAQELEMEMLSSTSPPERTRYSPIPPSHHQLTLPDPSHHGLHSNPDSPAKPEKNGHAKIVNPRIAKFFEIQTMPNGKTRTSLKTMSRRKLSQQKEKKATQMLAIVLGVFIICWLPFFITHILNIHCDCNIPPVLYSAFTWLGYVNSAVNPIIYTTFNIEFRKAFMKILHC

CCCN(CC[C@H]1CC[C@H](NC(=O)/C=C/c2ccccc2)CC1)[C@H]1CCc2nc(N)sc2C1
Ki [1]: 0.33 µM

CC(C)CCN(CC[C@H]1CC[C@H](NC(=O)c2ccc3ccccc3c2)CC1)[C@H]1CCc2nc(N)sc2C1
Ki [2]: 13 µM

CCCCN(CC[C@H]1CC[C@H](NC(=O)c2ccc3ccccc3c2)CC1)[C@H]1CCc2nc(N)sc2C1
Ki [2]: 5.4 µM

CCCN(CC[C@H]1CC[C@H](NC(=O)c2ccc3ccccc3c2)CC1)[C@H]1CCc2nc(N)sc2C1.Cl.Cl
solubility [3]: 100 mg/mL

COc1ccc2c(c1)CC[C@@H]1CN(CC[C@H]3CC[C@H](NC(=O)c4ccc5ccccc5c4)CC3)CCN21
Ki [1]: > 10 µM
Ki [2]: > 50 µM

CCCN[C@H]1CCc2nc(N)sc2C1 [PRAMIPEXOLE]
Ki [2]: > 100 µM

Nc1nc2c(s1)C[C@@H](NCC[C@H]1CC[C@H](NC(=O)c3ccc4ccccc4c3)CC1)CC2
Ki [2]: 64 µM
